Assay results from article PMC5588548, “Suramin Inhibits Osteoarthritic Cartilage Degradation by Increasing Extracellular Levels of Chondroprotective Tissue Inhibitor of Metalloproteinases 3” (Molecular Pharmacology, 2017).
≈ marks a conversion by molar mass, not a printed value.

Key:
[1] = system: porcine cartilage explants; assay: Aggrecan release from porcine cartilage explants (DMMB assay, neo-epitope immunoblotting); assay type: cell-based
Experimental: The effects of suramin on cartilage degradation were assessed using porcine or human cartilage explants. Explants were rested for 48 hours after dissection and were washed with serum-free DMEM. […]
Aggrecan degradation was analyzed by quantifying aggrecan fragments released into the conditioned media using the dimethylmethylene blue (DMMB) dye-binding assay ([Farndale et al., 1986]) (mean ± S.D., n = 3) and by immunoblotting with neo-epitope antibodies that recognize ADAMTS-cleaved but not intact aggrecan. For immunoblotting, conditioned media were deglycosylated by adding an equal volume of 200 mM sodium acetate and 50 mM Tris/HCl, pH 6.8, containing chondroitinase and β-endoglycosidase (0.05 U each; 18 hours, 37°C; Sigma-Aldrich). Aggrecan fragments were precipitated by adding five volumes of ice-cold acetone (18 hours, −20°C). After centrifugation (13,000 rpm, 10 minutes, 4°C), pellets were resuspended in SDS sample buffer, separated by electrophoresis on a 6% (v/v) polyacrylamide gel, and blotted onto polyvinylidene fluoride. Membranes were blocked with 5% (m/v) BSA in Tris-buffered saline and incubated with either a rabbit antibody that recognizes the AGEG neo-epitope generated by ADAMTS cleavage of the TAQE^1771∼^1772AGEG bond of aggrecan ([Troeberg et al., 2008]) or a mouse antibody that recognizes the ARGSV neo-epitope generated by ADAMTS cleavage of the NITEGE^373∼^374ARGSV bond ([Hughes et al., 1995]).

human TIMP-3 = biological target: T1, human TIMP-3 (Homo sapiens, UniProt P35625); assay: Solid-phase binding of TIMP-3 to immobilized suramin or analogs (ELISA); details: TIMP-3 0.4–50 nM
T1 construct: made in house; host or cells: human embryonic kidney 293 cells
T1 sequence (P35625 24-211): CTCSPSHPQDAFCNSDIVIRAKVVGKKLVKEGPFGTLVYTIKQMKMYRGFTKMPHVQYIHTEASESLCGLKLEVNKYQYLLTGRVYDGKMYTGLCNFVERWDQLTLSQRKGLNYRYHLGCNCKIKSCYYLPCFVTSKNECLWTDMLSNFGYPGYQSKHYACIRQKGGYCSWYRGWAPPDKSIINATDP
Experimental: Glycosaminoglycan-binding ELISA plates (BD Life Sciences, Swindon, UK) were coated with suramin or its analogs (10 µg/ml in Tris-buffered saline, 18 hours, 25°C) ([Mahoney et al., 2004]) and wells were blocked with 0.2% gelatin in PBS (1 hour, 37°C). Wells were washed in PBS containing 0.1% Tween 20 after this and every subsequent step. Purified FLAG-tagged human TIMP-3 (0.4–50 nM) in blocking solution was applied to wells (3 hours, 37°C), and binding was detected with anti-FLAG M2 primary antibody and anti-mouse horseradish peroxidase–conjugated secondary antibody. 3,3′,5,5′-Tetramethylbenzidine (Becton Dickinson, Swindon, UK) substrate was added, the reaction was stopped when appropriate by adding 2 N H2SO4, and absorbance at 450 nm was measured using a FLUOstar Omega microplate reader (BMG Labtech, Aylesbury, Buckinghamshire, UK). Data (mean ± S.E., n = 3 technical repeats) were analyzed using Prism 7.0b software (GraphPad Software, La Jolla, CA) and EC50 values determined using a one-site specific binding model. Flat planar dimensions of suramin analogs were estimated using ICM-Pro software (Molsoft LLC, San Diego, CA).

Cc1ccc(C(=O)Nc2ccc(S(=O)(=O)O)c3cc(S(=O)(=O)O)cc(S(=O)(=O)O)c23)cc1NC(=O)c1cccc(NC(=O)Nc2cccc(C(=O)Nc3cc(C(=O)Nc4ccc(S(=O)(=O)O)c5cc(S(=O)(=O)O)cc(S(=O)(=O)O)c45)ccc3C)c2)c1 [suramin]
IC50 ([1]; Sus scrofa, 48 h, porcine cartilage explants, retinoic acid 1 µM, 48 hours, DMMB assay, read-out: IC50 for inhibition of aggrecan release): 98 ± 9 µg/mL (≈ 75.5 µM)
aggrecan release ([1]; porcine cartilage explants stimulated with IL-1 10 ng/ml or retinoic acid 1 µM, 48 hours, DMMB assay): effectively inhibited
aggrecan degradation at ADAMTS-susceptible NITEGE373∼374ARGSV and TAQE1771∼1772AGEG sites (neo-epitope immunoblotting) ([1]; porcine cartilage explants, retinoic acid 1 µM, 48 hours): inhibited
aggrecan degradation ([1]; porcine cartilage, retinoic acid 1 µM, 30 hours, with anti–TIMP-3 antibody MAB973 50 µg/ml): unable to inhibit
aggrecan release ([1]; porcine cartilage, retinoic acid 1 µM, 30 hours, with isotype control antibody 50 µg/ml): significantly inhibited
EC50 (human TIMP-3; plates coated with 10 µg/ml compound, one-site specific binding model, mean ± S.E., n = 3): 1.9 ± 0.21 nM
Kd (human TIMP-3; solid-phase binding assay, plates coated 10 µg/ml, read-out: KD value for TIMP-3 binding to immobilized compound): 1.9 ± 0.2 nM
